One molecule from publication PMC6934184, “Selective DNA-PKcs inhibition extends the therapeutic index of localized radiotherapy and chemotherapy” (The Journal of Clinical Investigation, 2019) can be followed below.

For the experiment, the target named is T1, ACVR2B (Homo sapiens, UniProt Q13705).
T1 construct: purchased Thermo Fisher Scientific (Life Technologies) SelectScreen
Nature of the experiment: SelectScreen LanthaScreen. Conditions: 1 µM. The format is binding. An outline of the steps:
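NU5455 was profiled across the SelectScreen Broad panel of kinase activity and binding assays. Z'LYTE reactions such as CSF1R ran at apparent Km ATP, while the Adapta CAMK1 assay used ATP listed as 10. Values are given as percent.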
On the technique in general: TR-FRET usually uses a lanthanide donor and a delayed reading to cut background.

T1 sequence (Q13705 19-512): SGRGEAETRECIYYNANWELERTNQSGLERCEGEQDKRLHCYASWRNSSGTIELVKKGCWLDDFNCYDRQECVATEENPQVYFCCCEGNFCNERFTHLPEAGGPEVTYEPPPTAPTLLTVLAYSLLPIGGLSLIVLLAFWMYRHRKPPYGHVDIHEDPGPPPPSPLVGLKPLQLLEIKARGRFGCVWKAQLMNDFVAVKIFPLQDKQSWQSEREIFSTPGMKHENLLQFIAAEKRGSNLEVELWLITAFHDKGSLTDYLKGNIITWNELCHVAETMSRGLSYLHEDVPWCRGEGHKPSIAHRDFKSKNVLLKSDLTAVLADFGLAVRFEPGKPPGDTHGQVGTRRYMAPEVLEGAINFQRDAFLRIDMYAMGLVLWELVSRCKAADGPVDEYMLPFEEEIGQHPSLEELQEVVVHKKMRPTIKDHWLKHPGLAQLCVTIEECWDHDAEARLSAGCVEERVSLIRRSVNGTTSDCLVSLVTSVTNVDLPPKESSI

In the case of `CN(C(=O)CN1CCOCC1)c1ccc2sc3c(-c4cccc5c(=O)cc(N6CC7CCC(C6)O7)oc45)cccc3c2c1` [NU5455], the “% displacement” value was found to be 15.7%.
